Converted amounts (≈) assume the structure as drawn. One block for each compound: values may come before it.
Assays:
Assay in all cases: ≥ marks a high value that may be exact or a test limit, other limits are often not marked, values filed in µg/mL are converted to µM
[1] = test system: Candida albicans ATCC 10231
[2] = test system: Cryptococcus neoformans ATCC 32264
Bacillus cereus PCM 2003 = test system: Bacillus cereus PCM 2003
[3] = test system: Candida glabrata DSM 11226
Candida krusei DSM 6128 = test system: Candida krusei DSM 6128
Candida tropicalis = test system: Candida tropicalis
[4] = test system: Escherichia coli ATCC 25922
[5] = test system: Pseudomonas aeruginosa ATCC 27857
[6] = test system: Staphylococcus aureus ATCC 25923
[7] = test system: Staphylococcus epidermidis ATCC 12228
[8] = test system: Bifidobacterium longum subsp. infantis
Escherichia coli = test system: Escherichia coli
Staphylococcus aureus = test system: Staphylococcus aureus
Bacillus subtilis DELTA = test system: Bacillus subtilis DELTA
[9] = test system: Escherichia coli DH5alpha
[10] = test system: Zymomonas mobilis ATCC 10988
[11] = test system: Acinetobacter baumannii ATCC 19606
Acinetobacter baumannii = test system: Acinetobacter baumannii
[12] = test system: Bacillus subtilis NBRC 3009
[13] = test system: Escherichia coli NBRC 3972
[14] = test system: Staphylococcus aureus NBRC 13276
[15] = test system: Acinetobacter baumannii 97830
[16] = test system: Acinetobacter baumannii 9931
[17] = test system: Bacillus subtilis ATCC 23857
Escherichia coli 780 = test system: Escherichia coli 780
Escherichia coli 804 = test system: Escherichia coli 804
[18] = test system: Klebsiella pneumoniae ATCC 700603
[19] = test system: Pseudomonas aeruginosa 50
[20] = test system: Pseudomonas aeruginosa 73
[21] = test system: Pseudomonas aeruginosa ATCC 27853
[22] = test system: Pseudomonas aeruginosa ATCC 9027
[23] = test system: Staphylococcus aureus 113
Staphylococcus aureus 75 = test system: Staphylococcus aureus 75
[24] = test system: Staphylococcus aureus ATCC 29213
[25] = test system: Acinetobacter baumannii ATCC 7978
[26] = test system: Klebsiella aerogenes ATCC 13048
[27] = test system: Klebsiella pneumoniae WGLW2
[28] = test system: Staphylococcus aureus ATCC 29231
[29] = test system: Staphylococcus aureus MW2
[30] = test system: Bacillus subtilis ATCC 6051
[31] = test system: Escherichia coli NEB5alpha

MIC [11]: 0.9 µM (≈ 2.52 µg/mL)
MIC (Acinetobacter baumannii): 1.8 µM (≈ 5.05 µg/mL)
MIC [12]: 0.707 µM (≈ 1.98 µg/mL)
MIC [13]: 10 µM (≈ 28 µg/mL)
MIC [14]: 3.54 µM (≈ 9.92 µg/mL)
Structure (SMILES): CC[C@H](C)[C@H](NC(=O)[C@H](CO)NC(=O)[C@H](Cc1ccccc1)NC(=O)[C@H](CC(C)C)NC(=O)[C@H](CO)NC(=O)CNC(=O)[C@H](CC(C)C)NC(=O)[C@@H](N)Cc1ccccc1)C(=O)NCC(=O)N[C@@H](CO)C(=O)N[C@@H](CCCCN)C(=O)N[C@@H](CC(C)C)C(=O)N[C@@H](CC(C)C)C(=O)N1CCC[C@H]1C(=O)NCC(=O)N[C@H](C(=O)N[C@H](C(=O)N[C@@H](CCCCN)C(=O)N[C@@H](CC(C)C)C(=O)N[C@@H](Cc1ccccc1)C(=O)N[C@@H](CCC(N)=O)C(=O)N[C@@H](CCCN=C(N)N)C(=O)N[C@@H](CCCCN)C(=O)N[C@@H](CCCCN)C(=O)N[C@@H](CCC(N)=O)C(N)=O)[C@@H](C)CC)C(C)C [FLGSLFSIGSKLLPGVIKLFQRKKQ]

MIC [15]: ≥ 32 µM
MIC [16]: ≥ 32 µM
MIC [11]: 64 µM (≈ 99.5 µg/mL)
MIC [17]: 2 µM (≈ 3.11 µg/mL)
MIC (Escherichia coli 780): ≥ 32 µM
MIC (Escherichia coli 804): ≥ 64 µM
MIC [18]: 16 µM (≈ 24.9 µg/mL)
MIC [19]: ≥ 128 µM
MIC [20]: ≥ 128 µM
MIC [21]: > 128 µM
MIC [22]: 128 µM (≈ 199 µg/mL)
MIC [23]: 8 µM (≈ 12.4 µg/mL)
MIC (Staphylococcus aureus 75): 8 µM (≈ 12.4 µg/mL)
MIC [24]: 4 µM (≈ 6.22 µg/mL)
MIC [7]: 4 µM (≈ 6.22 µg/mL)
Structure (SMILES): NC(=O)[C@H](Cc1ccccc1)NC(=O)[C@H](Cc1c[nH]c2ccccc12)NC(=O)[C@H](CCCN=C(N)N)NC(=O)[C@H](Cc1c[nH]c2ccccc12)NC(=O)[C@H](Cc1c[nH]c2ccccc12)NC(=O)[C@H](Cc1c[nH]c2ccccc12)NC(=O)[C@H](CCCN=C(N)N)NC(=O)[C@H](Cc1c[nH]c2ccccc12)NC(=O)[C@@H](N)Cc1ccccc1 [FWRWWWRWF]

MIC [25]: 7.25 µM (≈ 15.4 µg/mL)
MIC [26]: ≥ 60.2 µM
MIC [27]: 30.1 µM (≈ 64 µg/mL)
MIC [28]: 30.1 µM (≈ 64 µg/mL)
MIC [29]: 30.1 µM (≈ 64 µg/mL)
Structure (SMILES): CC[C@H](C)[C@H](NC(=O)[C@H](CCCCN)NC(=O)[C@H](Cc1c[nH]c2ccccc12)NC(=O)[C@@H](N)CC(C)C)C(=O)NCC(=O)N[C@@H](CCCCN)C(=O)N[C@@H](CCCCN)C(=O)N[C@H](C(=O)N[C@@H](Cc1c[nH]c2ccccc12)C(=O)N[C@@H](CCCN=C(N)N)C(=O)N[C@H](C(=O)NCC(=O)N[C@@H](Cc1c[nH]c2ccccc12)C(=O)N[C@@H](CC(N)=O)C(=O)N[C@@H](Cc1c[nH]c2ccccc12)C(=O)N[C@@H](CCCN=C(N)N)C(=O)O)C(C)C)[C@@H](C)CC [LWKIGKKIWRVGWNWR]

MIC [30]: ≥ 500 µM
MIC [31]: ≥ 1000 µM
Structure (SMILES): CC(C)C[C@H](NC(=O)[C@H](C)NC(=O)[C@H](CC(=O)O)NC(=O)[C@H](CCC(=O)O)NC(=O)[C@H](CC(C)C)NC(=O)[C@H](Cc1ccccc1)NC(=O)[C@H](CC(=O)O)NC(=O)[C@@H](N)CCCN=C(N)N)C(=O)N[C@@H](CC(N)=O)C(=O)O [RDFLEDALN]

Second part, the compound before the results:

Structure (SMILES): C[C@H](N)C(=O)N[C@@H](CCC(N)=O)C(=O)N[C@@H](Cc1c[nH]c2ccccc12)C(=O)N[C@@H](CCCN=C(N)N)C(=O)N[C@@H](CCCN=C(N)N)C(=O)N[C@@H](Cc1c[nH]c2ccccc12)C(=O)N[C@@H](Cc1c[nH]c2ccccc12)C(=O)N[C@@H](CCC(N)=O)C(=O)N[C@@H](Cc1c[nH]c2ccccc12)C(=O)N[C@@H](CCCN=C(N)N)C(=O)N[C@@H](CCCN=C(N)N)C(N)=O [AQWRRWWQWRR]
MIC [1]: 50 µM (≈ 85.7 µg/mL)
MIC [2]: 25 µM (≈ 42.8 µg/mL)

Structure (SMILES): CSCC[C@H](NC(=O)[C@H](C)NC(=O)[C@H](CCCN=C(N)N)NC(=O)[C@H](CCCCN)NC(=O)[C@H](Cc1c[nH]c2ccccc12)NC(=O)[C@H](CCC(N)=O)NC(=O)[C@H](Cc1ccccc1)NC(=O)[C@@H](N)CS)C(=O)N[C@@H](CCCN=C(N)N)C(=O)N[C@@H](CCCCN)C(=O)N[C@H](C(=O)N[C@@H](CCCN=C(N)N)C(N)=O)C(C)C [CFQWKRAMRKVR]
MIC (Bacillus cereus PCM 2003): ≥ 155 µM
MIC [1]: > 155 µM
MIC [3]: ≥ 155 µM
MIC (Candida krusei DSM 6128): ≥ 155 µM
MIC (Candida tropicalis): ≥ 155 µM
MIC [4]: 9.94 µM (≈ 16 µg/mL)
MIC [5]: ≥ 77.7 µM
MIC [6]: 39.2 µM (≈ 63 µg/mL)
MIC [7]: 2.49 µM (≈ 4 µg/mL)

Structure (SMILES): CSCC[C@H](NC(=O)[C@@H](N)CC(=O)O)C(=O)N[C@@H](CC(C)C)C(=O)N[C@H](C(=O)N[C@H](C(=O)N[C@@H](CC(=O)O)C(=O)N1CCC[C@H]1C(=O)N[C@@H](CCCCN)C(=O)O)C(C)C)C(C)C [DMLVVDPK]
MIC [8]: ≥ 3270 µM
MIC (Escherichia coli): 3270 µM (≈ 3000 µg/mL)
MIC (Staphylococcus aureus): 3270 µM (≈ 3000 µg/mL)

Structure (SMILES): CC[C@H](C)[C@H](NC(=O)[C@H](CCCN=C(N)N)NC(=O)[C@H](CCC(N)=O)NC(=O)[C@@H](NC(=O)[C@@H](NC(=O)[C@H](CCCN=C(N)N)NC(=O)[C@H](CCCCN)NC(=O)[C@H](Cc1ccccc1)NC(C)=O)[C@@H](C)CC)C(C)C)C(=O)N[C@@H](CCCN=C(N)N)C(=O)N[C@@H](CC(=O)O)C(=O)N[C@@H](Cc1ccccc1)C(=O)N[C@@H](CC(C)C)C(=O)N[C@@H](CCCN=C(N)N)C(N)=O [FKRIVQRIRDFLR]
MIC (Bacillus subtilis DELTA): 22.9 µM (≈ 40.9 µg/mL)
MIC [9]: ≥ 57.2 µM
MIC [10]: ≥ 114 µM

— DBAASP
